Laboratory results from patent US10155754B2, “Substituted 2-imino-1,3-thiazolidin-4-ones as N-arachidonoylethanolamine cellular uptake inhibitors” (UNIVERSITAT BERN, priority 2014, dated 2018).

How the values were obtained:
FAAH = target: T1, FAAH (Homo sapiens, UniProt O00519); assay: FAAH activity: hydrolysis of [3H]-AEA in U937 cell homogenates; type: biochemical; conditions: [3H]-AEA hydrolysis, final 100 nM AEA, read-out: FAAH inhibition IC50
T1 construct: endogenous in cells; host or cells: U937 cell homogenate
T1 sequence (O00519 1-579): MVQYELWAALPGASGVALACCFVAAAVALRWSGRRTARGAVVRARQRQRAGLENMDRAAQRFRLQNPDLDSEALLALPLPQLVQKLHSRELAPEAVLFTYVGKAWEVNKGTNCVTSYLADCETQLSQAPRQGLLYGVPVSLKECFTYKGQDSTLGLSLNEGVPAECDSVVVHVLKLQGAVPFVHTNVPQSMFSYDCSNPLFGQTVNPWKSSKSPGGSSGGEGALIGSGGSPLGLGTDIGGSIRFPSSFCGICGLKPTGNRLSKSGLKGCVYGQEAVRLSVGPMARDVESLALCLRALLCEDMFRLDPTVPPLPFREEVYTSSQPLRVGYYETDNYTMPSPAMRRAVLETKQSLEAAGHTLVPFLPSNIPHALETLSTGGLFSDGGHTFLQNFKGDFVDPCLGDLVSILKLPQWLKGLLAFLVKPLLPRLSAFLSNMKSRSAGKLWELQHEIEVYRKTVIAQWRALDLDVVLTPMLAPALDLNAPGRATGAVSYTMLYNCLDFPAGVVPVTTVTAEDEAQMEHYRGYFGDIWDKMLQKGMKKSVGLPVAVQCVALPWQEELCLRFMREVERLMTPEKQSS
Method: Hydrolysis of [^3H]-AEA by FAAH was determined as previously described in cell homogenates of U937 cells (0.18 mg protein) (Omeir et al., 1999, Biochem Biophys Res Commun, 264, 316-20; Mor et al., 2004, J Med Chem, 47, 4998-5008). Protein amounts of cell homogenates corresponded to 0.5×10^6 cells (U937), to assure best possible comparability of IC50 values as used for the AEA cellular uptake assays. URB597 was used as positive control. Protein quantification was performed using a BCA assay (Thermo Scientific). Enzyme activity was assessed by addition of vehicle or compounds in 10 μL DMSO to 490 μL homogenate in 10 mM Tris HCl, 1 mM EDTA, 0.1% (w/v) BSA fatty acid free, pH=8 and incubation for 15 min at 37° C. After, a mixture of AEA plus [ethanolamine-1-^3H]-AEA (0.5 nM) at final 100 nM was added to the homogenates and incubated for 15 min at 37° C. The reaction was stopped by addition of 1 mL ice-cold CHCl3:MeOH (1:1) followed by vigorous vortexing. Phase separation was achieved by centrifugation at 10'000×g at 4° C. for 10 min. Radioactivity of the separated aqueous phase (upper phase) containing [^3H-ethanolamine] or [^3H-glycerol] was measured by liquid scintillation counting on a Tri-Carb 2100 TR liquid scintillation analyzer after addition of 3.5 mL Ultima Gold scintillation cocktail (PerkinElmer Life Sciences). Results are expressed as hydrolysis of tritium substrate in percent of vehicle treated control. IC50 values were calculated by GraphPad®. Data are reported as means of n=3 independent experiments performed in triplicates.

[1] = system: AEA cellular uptake (U937 cells); assay: [3H]-AEA cellular uptake inhibition in U937 cells; type: cell-based; conditions: Homo sapiens, U-937, U937 cells, final 100 nM AEA with 0.5 nM [3H]-AEA, 15 min at 37° C.; read-out: AEA uptake IC50
How it was run: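 U937 cells (0.5×10^6 per sample) pre-incubated with compound (100 pM–100 μM, triplicates) for 15 min at 37 °C, then given 100 nM AEA including 0.5 nM [3H]-AEA for 15 min. Filtration, washing and scintillation counting of cell-associated radioactivity; IC50 by four-parameter nonlinear regression.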

Row | IC50 (FAAH) [nM] | IC50 [1] [nM] | Structure (SMILES)
1 | 22900 | 132 | O=C1/C(=C/c2ccc3[nH]cnc3c2)S/C(=N\c2ccc(F)cc2)N1C1CCCCC1 [04_B_I, (2Z,5Z)-5-((1H-benzo[d]imidazol-5-yl)methylene)-2-(4-fluorophenylimino)-3-cyclohexylthiazolidin-4-one]
2 | 2630 | 509 | CC(C)CN1C(=O)/C(=C/c2ccc3c(c2)OCCO3)S/C1=N\Cc1ccc(F)cc1 [24_P_X, (2Z,5Z)-2-(4-fluorobenzylimino)-5-((2,3-dihydrobenzo[b][1,4]dioxin-6-yl)methylene)-3-isobutylthiazolidin-4-one]
3 | 1290 | 33 | COc1ccc(C/N=C2\S/C(=C\c3ccc4c(c3)OCCO4)C(=O)N2c2ccc(F)cc2)cc1 [24_Q_B, (2Z,5Z)-2-(4-methoxybenzylimino)-3-(4-fluorophenyl)-5-((2,3-dihydrobenzo[b][1,4]dioxin-6-yl)methylene)thiazolidin-4-one]
4 | > 100000 | 334 | Cc1ccc(N2C(=O)/C(=C/c3ccc4c(c3)OCCO4)S/C2=N\c2ccccc2)cc1 [24_N_A, (2Z,5Z)-5-((2,3-dihydrobenzo[b][1,4]dioxin-6-yl)methylene)-2-(phenylimino)-3-p-tolylthiazolidin-4-one]
5 | 427 | 137 | COc1ccc(C/N=C2\S/C(=C\c3ccc4c(c3)OCCO4)C(=O)N2CC(C)C)cc1 [24_Q_X, (2Z,5Z)-2-(4-methoxybenzylimino)-5-((2,3-dihydrobenzo[b][1,4]dioxin-6-yl)methylene)-3-isobutylthiazolidin-4-one]
6 | > 100000 | 170 | O=C1/C(=C/c2ccc3c(c2)OCCO3)S/C(=N\c2ccc(F)cc2)N1c1ccc(F)cc1 [24_B_B, (2Z,5Z)-2-(4-fluorophenylimino)-3-(4-fluorophenyl)-5-((2,3-dihydrobenzo[b][1,4]dioxin-6-yl)methylene)thiazolidin-4-one]
7 | 37 | 35 | COc1ccc(C/N=C2\S/C(=C\c3ccc4c(c3)OCCO4)C(=O)N2C2CCCCC2)cc1 [24_Q_I, (2Z,5Z)-2-(4-methoxybenzylimino)-3-cyclohexyl-5-((2,3-dihydrobenzo[b][1,4]dioxin-6-yl)methylene)thiazolidin-4-one]
8 | > 100000 | 667 | O=C1/C(=C/c2ccc3c(c2)OCCO3)S/C(=N\c2ccccc2)N1c1ccc(F)cc1 [24_N_B, (2Z,5Z)-3-(4-fluorophenyl)-5-((2,3-dihydrobenzo[b][1,4]dioxin-6-yl)methylene)-2-(phenylimino)thiazolidin-4-one]
9 | > 100000 | 341 | Cc1ccc(/N=C2\S/C(=C\c3ccc4ncsc4c3)C(=O)N2C2CCCCC2)cc1 [32_A_I, (2Z,5Z)-2-(p-tolylimino)-5-((benzo[d]thiazol-6-yl)methylene)-3-cyclohexylthiazolidin-4-one]
10 | > 100000 | 817 | O=C1/C(=C/c2ccc3c(c2)OCCO3)S/C(=N\c2ccccc2)N1c1ccccc1 [compound 24, (2Z,5Z)-5-((2,3-dihydrobenzo[b][1,4]dioxin-6-yl)methylene)-3-phenyl-2-(phenylimino)thiazolidin-4-one]
11 | > 100000 | 162 | CC(C)CN1C(=O)/C(=C/c2ccc3c(c2)OCCO3)S/C1=N\c1ccc(F)cc1 [24_B_X, (2Z,5Z)-2-(4-fluorophenylimino)-5-((2,3-dihydrobenzo[b][1,4]dioxin-6-yl)methylene)-3-isobutylthiazolidin-4-one]
12 | 813 | 85 | COc1ccc(C/N=C2\S/C(=C\c3ccc4c(c3)OCCO4)C(=O)N2c2ccc(Cl)cc2)cc1 [24_Q_L, (2Z,5Z)-2-(4-methoxybenzylimino)-3-(4-chlorophenyl)-5-((2,3-dihydrobenzo[b][1,4]dioxin-6-yl)methylene)thiazolidin-4-one]
13 | > 100000 | 301 | Cc1ccc(/N=C2\S/C(=C\c3ccc4c(c3)OCCO4)C(=O)N2C2CCCCC2)cc1 [24_A_I, (2Z,5Z)-3-cyclohexyl-5-(2,3-dihydro-1,4-benzodioxin-6-ylmethylene)-2-(p-tolylimino)thiazolidin-4-one]

The remaining lines, values behind:

Row | Structure (SMILES) | IC50 (FAAH) [nM] | IC50 [1] [nM]
14 | Cc1ccc(/N=C2\S/C(=C\c3ccc4[nH]cnc4c3)C(=O)N2c2ccc(C)cc2)cc1 [04_A_A, (2Z,5Z)-5-((1H-benzo[d]imidazol-5-yl)methylene)-2-(p-tolylimino)-3-p-tolylthiazolidin-4-one] | > 100000 | 390
15 | O=C1/C(=C/c2ccccc2)S/C(=N\Cc2ccccc2)N1c1ccccc1 [23_C_N, (2Z,5Z)-5-benzylidene-2-(benzylimino)-3-phenylthiazolidin-4-one] | > 10000 | 180
16 | Cc1ccc(/N=C2\S/C(=C\c3ccc4[nH]cnc4c3)C(=O)N2CC(C)C)cc1 [04_A_X, (2Z,5Z)-5-((1H-benzo[d]imidazol-5-yl)methylene)-2-(p-tolylimino)-3-isobutylthiazolidin-4-one] | 14500 | 155
17 | Cc1ccc(/N=C2\S/C(=C\c3ccc4[nH]ccc4c3)C(=O)N2c2ccc(C)cc2)cc1 [03_A_A, (2Z,5Z)-5-((1H-indol-5-yl)methylene)-2-(p-tolylimino)-3-p-tolylthiazolidin-4-one] | > 100000 | 315
18 | O=C1/C(=C/c2ccc(CO)cc2)S/C(=N\CCCc2ccccc2)N1c1ccccc1 [22_K_N, (2Z,5Z)-2-(3-phenylpropylimino)-5-(4-(hydroxymethyl)benzylidene)-3-phenylthiazolidin-4-one] | 6610 | 97
19 | O=C1/C(=C/c2ccc3[nH]ccc3c2)S/C(=N\Cc2ccc(F)cc2)N1c1ccccc1 [03_P_N, (2Z,5Z)-5-((1H-indol-5-yl)methylene)-2-(4-fluorobenzylimino)-3-phenylthiazolidin-4-one] | < 10000 | 403
20 | CC(C)CN1C(=O)/C(=C/c2ccc(CO)cc2)S/C1=N\c1ccc(F)cc1 [22_B_X, (2Z,5Z)-5-(4-(hydroxymethyl)benzylidene)-2-(4-fluorophenylimino)-3-isobutylthiazolidin-4-one] | 19100 | 127
21 | O=C1/C(=C/c2ccc3c(c2)OCCO3)S/C(=N\Cc2ccc(F)cc2)N1c1ccc(Cl)cc1 [24_P_L, (2Z,5Z)-2-(4-fluorobenzylimino)-3-(4-chlorophenyl)-5-((2,3-dihydrobenzo[b][1,4]dioxin-6-yl)methylene)thiazolidin-4-one] | 617 | 51
22 | Cc1ccc(/N=C2\S/C(=C\c3ccc(CO)cc3)C(=O)N2c2ccccc2)cc1 [22_A_N, (2Z,5Z)-5-(4-(hydroxymethyl)benzylidene)-2-(p-tolylimino)-3-phenylthiazolidin-4-one] | 19500 | 111
23 | Cc1ccc(/N=C2\S/C(=C\c3ccc(CO)cc3)C(=O)N2c2ccc(C)cc2)cc1 [22_A_A, (2Z,5Z)-5-(4-(hydroxymethyl)benzylidene)-2-(p-tolylimino)-3-p-tolylthiazolidin-4-one] | > 100000 | 341
24 | O=C1/C(=C/c2ccc3c(c2)OCCO3)S/C(=N\Cc2ccc(F)cc2)N1c1ccc(F)cc1 [24_P_B, (2Z,5Z)-2-(4-fluorobenzylimino)-3-(4-fluorophenyl)-5-((2,3-dihydrobenzo[b][1,4]dioxin-6-yl)methylene)thiazolidin-4-one] | 11200 | 1040
25 | Cc1ccc(/N=C2\S/C(=C\c3ccc(CO)cc3)C(=O)N2CC(C)C)cc1 [22_A_X, (2Z,5Z)-5-(4-(hydroxymethyl)benzylidene)-2-(p-tolylimino)-3-isobutylthiazolidin-4-] | > 100000 | 150
26 | COCc1cccc(/C=C2\S/C(=N\Cc3ccc(OC)cc3)N(c3ccccc3)C2=O)c1 [15_Q_N, (2Z,5Z)-5-(3-(methoxymethyl)benzylidene)-2-(4-methoxybenzylimino)-3-phenylthiazolidin-4-one] | < 10000 | 368
